PMC4865845, “A human genome-wide loss-of-function screen identifies effective chikungunya antiviral drugs” (Nature Communications, 2016)

Test system: CHIKV
Format: cell-based, chikungunya virus

| Substance | Score_si1 | Score_si2 | Score_si3 | Score_si4 |
| --- | --- | --- | --- | --- |
| Hs_CSNK1A1_5 (sense AGGGCTAAAGGCTGCAACAAA; chemistry not given here) | 2.25 |  |  |  |
| Hs_CUL4A_1 (sense ACCCATATTATTAGTGATAAA; chemistry not given here) [reference compound] | -2.33 |  |  |  |
| Hs_D21S2056E_1 (CAGGGAATTCAGCTCCAGTAA; chemistry not given here) | 2.83 |  |  |  |
| Hs_DC-UbP_1 (AAGGCAGTTAAGAAATAGATA; chemistry not given here) |  | 1.13 |  |  |
| Hs_DC-UbP_2 (CAGGCTTTGAGACTCATGTAA; chemistry not given here) | 1.59 |  |  |  |
| Hs_DC-UbP_5 (AGGCAGTTAAGAAATAGATAA; chemistry not given here) |  |  | 0.86 |  |
| Hs_DHX38_1 (CAGGATTTGGAAATAAATTTA; chemistry not given here) | 2.48 |  |  |  |
| Hs_DHX38_2 (CAGCAGTGAATTTGCAAAGAA; chemistry not given here) |  |  |  | 1.02 |
| Hs_DKFZP434B168_1 (CTGAAATTACTTGCTAATAAA; chemistry not given here) |  |  | 1.61 |  |
| Hs_DKFZP564C186_1 (AAGGATGAGGACAGGAAGCAA; chemistry not given here) | 2.71 |  |  |  |
| Hs_DKFZP564C186_2 (CACGGACAGTGCTGCATTCAA; chemistry not given here) |  |  | 1.17 |  |
| Hs_DKFZp547E052_2 (CAGGAGATAGGACATCATTTA; chemistry not given here) | 2.29 |  |  |  |
| Hs_DLD_2 (CCCACTTATTCAAACAGAATA; chemistry not given here) |  |  |  | 0.87 |
| Hs_DLD_3 (CAGGTGGAATTGCCCACTTAT; chemistry not given here) | 2.15 |  |  |  |
| Hs_DLD_4 (TCGCTTGAATTTAGACAAGAT; chemistry not given here) |  | 1.23 |  |  |
| Hs_DMAP1_1 (GCGGATGTACGGGACATTCTA; chemistry not given here) | 2.23 |  |  |  |
| Hs_DOK6_1 (TACGCCAAACCTGGATATTTA; chemistry not given here) [reference compound] |  |  | -0.32 |  |
| Hs_DOK6_5 (CTGAGCAACATGAAAGATTAA; chemistry not given here) [reference compound] | -2.96 |  |  |  |
| Hs_E2F3_1 (TTGCGTTACTTTAAGTACTAA; chemistry not given here) [reference compound] | -2.09 |  |  |  |
| Hs_E2F3_5 (TACAGTATTTGCGTTACTTTA; chemistry not given here) [reference compound] |  | -1.78 |  |  |
| Hs_EEF1A1_1 (CTGGTTAATGATAACAATGCA; chemistry not given here) |  |  | 2.24 |  |
| Hs_EEF1A1_4 (CAACGTTACAACGGAAGTAAA; chemistry not given here) | 2.64 |  |  |  |
| Hs_EEF2_2 (TGCCGTTTCTTTCAATATTTA; chemistry not given here) | 2.07 |  |  |  |
| Hs_EIF2B2_2 (CAACATCATTGAGGCGATTAA; chemistry not given here) | 2.1 |  |  |  |
| Hs_EIF2B5_1 (CTTGTATATGTTAATATTAAA; chemistry not given here) |  |  |  | 1.02 |
| Hs_EIF2B5_2 (CAAAGTGAAGATGAAAGGTTA; chemistry not given here) | 1.62 |  |  |  |
| Hs_ENTPD2_1 (CACGTCCATGTTTATCTACAA; chemistry not given here) |  | 1.25 |  |  |

| Substance | Score_si1 | Score_si2 | Score_si3 | Score_si4 |
| --- | --- | --- | --- | --- |
| Hs_ENTPD2_2 (CGGCGTGATCTTCCAGAAGAA; chemistry not given here) | 1.32 |  |  |  |
| Hs_EP400_1 (CAGAATGATTTGGACATTGAA; chemistry not given here) | 2.29 |  |  |  |
| Hs_EXOSC1_1 (TTCATTCTCTTGAGTAATAAA; chemistry not given here) [reference compound] |  |  |  | 0.51 |
| Hs_EXOSC1_2 (AAGCAGAGAAAGACATCTAAA; chemistry not given here) [reference compound] | -2.21 |  |  |  |
| Hs_EZH2_6 (CAGGATGGTACTTTCATTGAA; chemistry not given here) | 1.77 |  |  |  |
| Hs_EZH2_7 (AACCATGTTTACAACTATCAA; chemistry not given here) |  |  |  | 0.98 |
| Hs_F25965_1 (CAGCGAGAACACGCCACTGTA; chemistry not given here) | 1.49 |  |  |  |
| Hs_F25965_2 (ACCAGCTTCGTTACTCAGAAA; chemistry not given here) |  |  | 1.05 |  |
| Hs_FASN_3 (CCGCTACATGGCCCAAGGGAA; chemistry not given here) | 2.39 |  |  |  |
| Hs_FBXO42_3 (CAGGCTGGGATCAAATCTCCA; chemistry not given here) | 2.82 |  |  |  |
| Hs_FCGRT_1 (CTCGTCGTCACTAACAGTCAA; chemistry not given here) | 2.15 |  |  |  |
| Hs_FCGRT_2 (AAGGATGTAAATGTGATTCCA; chemistry not given here) |  | 1.36 |  |  |
| Hs_FLJ00193_2 (GAGCAGCTACATGGAGATGAA; chemistry not given here) | 2.41 |  |  |  |
| Hs_FLJ10134_1 (CTGATGTTATATGACTATAAA; chemistry not given here) | 1.71 |  |  |  |
| Hs_FLJ10134_2 (CTCCTTGACCATGGAATTATA; chemistry not given here) |  | 1.53 |  |  |
| Hs_FLJ11752_1 (sense CTGGATATTACTAGAGTTGTA; chemistry not given here) | 2.31 |  |  |  |
| Hs_FLJ20257_2 (sense CACCAAGTGGGTGCATCTGAA; chemistry not given here) | 2.26 |  |  |  |
| Hs_FLJ20530_2 (sense TTGACTTATCTTCATCATAAA; chemistry not given here) | 2.95 |  |  |  |
| Hs_FLJ31164_2 (sense CCAGCTGAGCACCCGAATAAA; chemistry not given here) |  |  |  | 0.41 |
| Hs_FLJ31164_3 (sense GAAGCTGTTGATAGTATTGAA; chemistry not given here) | 1.5 |  |  |  |
| Hs_FLJ31164_4 (sense GAGCAACTTGCTGGATGTGAA; chemistry not given here) |  | 1.07 |  |  |
| Hs_FLT4_4 (sense CGCGCTGATGTCGGAGCTCAA; chemistry not given here) | 1.18 |  |  |  |
| Hs_FLT4_8 (sense CACCGTGTGGGCTGAGTTTAA; chemistry not given here) |  | 1.07 |  |  |
| Hs_FTSJ2_1 (sense CAGAGGAATTCCAGAATGTAA; chemistry not given here) |  | 1.91 |  |  |
| Hs_FTSJ2_2 (sense CAGAATGTAAGGATCATCAAA; chemistry not given here) |  |  | 1.86 |  |
| Hs_FXC1_2 (sense CAAGTATTTGTTGGTTCATAA; chemistry not given here) | 2.83 |  |  |  |
| Hs_GAP43_1 (sense CCGGCTCAGCTGAGACAGAAA; chemistry not given here) | 2.5 |  |  |  |

| Substance | Score_si1 | Score_si2 | Score_si3 | Score_si4 |
| --- | --- | --- | --- | --- |
| Hs_GBF1_1 (sense AAGAATATTTACATCATTCAA; chemistry not given here) |  |  |  | 1.75 |
| Hs_GCN1L1_2 (sense CAGGTTCAGCTGGAATGTGAA; chemistry not given here) | 2.09 |  |  |  |
| Hs_GFRA4_2 (sense CAGGTCAGAGACCATCCAGAA; chemistry not given here) | 1.82 |  |  |  |
| Hs_GFRA4_4 (sense CAGGAGGCATCTTGGTTGTAA; chemistry not given here) |  |  | 1.57 |  |
| Hs_GLTSCR2_4 (sense CAAGTTCAAACGCAAGTACAA; chemistry not given here) |  | 1.95 |  |  |
| Hs_GLTSCR2_6 (sense CCGGAGCTTCCTACAATCCAT; chemistry not given here) |  |  | 1.7 |  |
| Hs_GNB2L1_2 (sense CAGATTGTCTCTGGATCTCGA; chemistry not given here) | 2.65 |  |  |  |
| Hs_GNB2L1_5 (sense TTGGCACACGCTAGAAGTTTA; chemistry not given here) |  |  |  | 1.27 |
| Hs_GNB2L1_6 (sense AAGGATGGCCAGGCCATGTTA; chemistry not given here) |  | 1.62 |  |  |
| Hs_GNG13_2 (sense CACGTGATTACAGTCTGTAAA; chemistry not given here) |  | 1.42 |  |  |
| Hs_GNG13_3 (sense CCCACTCACAACATCTTGTAA; chemistry not given here) |  |  |  | 0.93 |
| Hs_GNG13_4 (sense CCCACTCACTCCATCTTGTAA; chemistry not given here) |  |  | 1.13 |  |
| Hs_GP1BB_3 (sense CTGCTGCGTCTCCCTTCCAAA; chemistry not given here) [reference compound] |  | -0.99 |  |  |
| Hs_GP1BB_4 (sense CGAGCTGGTGCTGACCGGCAA; chemistry not given here) [reference compound] |  |  | -0.68 |  |
| Hs_GP1BB_5 (sense ACGAGTCCTGAGGAGAGAA; chemistry not given here) [reference compound] | -1.46 |  |  |  |
| Hs_GPS1_3 (sense CAAGTGGGCGGTGTCCATTAA; chemistry not given here) |  |  | 1.75 |  |
| Hs_GPS1_6 (sense CAGCCTGGATCTGGAACAGTA; chemistry not given here) |  | 1.76 |  |  |
| Hs_GPSN2_1 (sense CTGGATCGGTTTCGCCATCAT; chemistry not given here) |  | 2.41 |  |  |
| Hs_GPSN2_2 (sense GTGGATGGCCTATTACATCAA; chemistry not given here) | 2.86 |  |  |  |
| Hs_GRB10_2 (sense CTACCGTATAGTAACACTGTA; chemistry not given here) | 0.95 |  |  |  |
| Hs_GRB10_4 (sense GTGAATTGTTGGAGAATGTAA; chemistry not given here) |  |  | 0.73 |  |
| Hs_GRB10_6 (sense CTAGATGACGGGAACACCAAA; chemistry not given here) |  |  |  | 0.5 |
| Hs_GSTP1_2 (sense CCAGATCTCCTTCGCTGACTA; chemistry not given here) | 2.46 |  |  |  |
| Hs_GSTP1_3 (sense TCCTTTCTCCAGGACCAATAA; chemistry not given here) |  |  |  | -0.14 |
| Hs_GSTP1_5 (sense CCTCATCTACACCAACTATGA; chemistry not given here) |  |  | 0.45 |  |
